Results reported in US8614251B2, “Crystalline form VI of agomelatine, preparation method and application thereof” (Les Laboratories Servier, priority 2009, dated 2013).
Values after ≈ are worked out from the molar mass of the structure shown.

How the values were obtained:
[1] = Stability of crystalline forms on storage at 40° C. for 20 days, purity by HPLC; type: physicochemical; settings: for Purity after storage in the thermostatically controlled containers for 20 days / Purity before storage: HPLC
Description: Crystalline forms II, III, IV and VI are respectively placed in a thermostatically controlled container at 40° C. for 20 days. The stability of the said crystalline forms is assessed by high performance liquid chromatography.
Chromatographic conditions: octadecylsilane bonded silica as filler; a mixed solution of 10 mM/L phosphate buffer (adjusted to pH 7.0 by sodium hydroxide) and acetonitrile in 2:7 by volume as mobile phase; column temperature 40° C.; detection wavelength 220 nm. The purity is determined using an internal standard method.
The crystalline forms II, III, IV and VI were formulated with the mobile phase as 1 mg/mL solution. 10 μL of each of the solution was removed and injected into the liquid chromatograph. The chromatograms were recorded.
The assay was carried out using an external standard method as described under Purity Measurement of the Sample.

[2] = Solubility measurement in water by HPLC, external standard method; type: physicochemical
Description: 3. Solubility Measurement in Water
The measurement was carried out by HPLC using an external standard method.

Purity after storage in the thermostatically controlled containers for 20 days ([1]; 40° C., 20 days) [%] | Purity before storage [1] [%] | Solubility compared with the existing crystalline forms [2] | solubility ([2]; HPLC) [µg/mL] | Stability compared with the existing crystalline forms ([1]; 40° C., 20 days) | SMILES
99.24 | 99.79 | – | – | – | COc1ccc2cccc(CCNC(C)=O)c2c1 [crystalline form II, N-[2-(7-methoxy-1-naphthyl)ethyl]acetamide]
99.10 | 99.77 | – | – | – | COc1ccc2cccc(CCNC(C)=O)c2c1 [crystalline form III, N-[2-(7-methoxy-1-naphthyl)ethyl]acetamide]
99.54 | 99.82 | – | – | – | COc1ccc2cccc(CCNC(C)=O)c2c1 [crystalline form IV, N-[2-(7-methoxy-1-naphthyl)ethyl]acetamide]
99.55 | 99.60 | superior | 1240 (≈ 5.1 mM) | superior | COc1ccc2cccc(CCNC(C)=O)c2c1 [crystalline form VI, N-[2-(7-methoxy-1-naphthyl)ethyl]acetamide]
